The data set is described as follows: Rheology Test Method (shear stress at 950 s^−1 via flow curve). It counts as physicochemical. The procedure: 2. Rheology Test Method Rheology is used to evaluate and characterise product samples. The two key rheology methods identified are mentioned below: • Shear Stress at 950 s^−1 via flow curve: This is the method to ramp up shear rate logarithmically from 0.1 to 1000 s^−1 in 1 min using a cone & plate geometry, and to read the shear stress value 6 (Pa) at shear rate 950 s^−1. • Delta in Rheology %: This is the percentage difference in rheology measurement following the formula below: Delta in Rheology %=((a−b)/b)×100% • where a is the post added product and b is the no post added product. If rheology reduction is more than 50%, it would indicate significant interaction with chassis and incompatible.
For Pentylene Glycol, the “rheology reduction / compatibility with formulation, in words” value is recorded as “no significant rheology reduction”. With `CCCCCCCC(=O)OCC(O)CO` (stereo not shown) [Glyceryl caprylate] the entry was “no significant rheology reduction”; with `O=C([O-])c1ccccc1.[Na+]` [Sodium benzoate, reference compound], “significant rheology reduction”; with `CC(=O)c1ccc(O)cc1` [4-Hydroxyacetophenone], “no significant rheology reduction”.

These data come from patent US11969490B2, “Hair conditioning composition with antimicrobial system” (The Procter & Gamble Company, priority 2020, dated 2024).
